Data set [1] has as its system HepG2 cells.
Another data set deals with human cancer cells. Particulars: human cancer cells rather than normal cells; cited from earlier work.
In data set [2] the test system is HepG2 cells. The data set can be described thus: cells. Particulars: Homo sapiens, HepG2, 24 h, read-out: IC50 of HepG2 cells.
The subject of the next data set is CCD-966SK cells. The experiment in a line: Cell viability assay (MTT assay), normal cell line CCD-966SK. In kind it is cell-based. For orientation: Formazan colour is commonly taken as a measure of viable cells.

Converted amounts (≈) assume the structure as drawn. Where two headings read alike, the source gives them in different places.

Consider `CC/C(=C(\c1ccccc1)c1ccc(OCCN(C)C)cc1)c1ccccc1` [tamoxifen], for which, in the data set with HepG2 cells [1] (12.5 μg/ml tamoxifen alone), the “killing of HepG2 cells” value is given as “cannot be completely killed”.

As for `C=C(CC[C@@H](C)[C@H]1CC[C@H]2C3=C(C(=O)C[C@]12C)[C@@]1(C)CCC(=O)[C@@H](C)[C@@H]1CC3)C(C)C(=O)OC` (stereo partly shown) [Methyl antcinate A], in the data set with human cancer cells, the “selective inhibition of proliferation” value is “selectively inhibit proliferation of human cancer cells rather than normal cells”.

Regarding `C=C(CC[C@@H](C)[C@H]1CC[C@H]2C3=C(C(=O)C[C@]12C)[C@@]1(C)CCC(=O)[C@@H](C)C1C[C@@H]3O)C(C)C(=O)O` (stereo partly shown) [Antcin C, 4amethylergosta-8,24(28)-dien-3,11-trion-7P-26-oic acid], the “selective inhibition of proliferation” value in the data set with human cancer cells is on record as “selectively inhibit proliferation of human cancer cells rather than normal cells”.

Regarding `O=c1[nH]cc(F)c(=O)[nH]1` [5FU, 5-fluorouracil], the “killing of HepG2 cells” value with HepG2 cells [1] (5FU alone, high concentration) was “cannot be completely killed”. For the same molecule, the IC50 in the data set with HepG2 cells [2] was 200 µg/mL (≈ 1540 µM).

Take `O=C1c2c(O)ccc(O)c2C(=O)c2c(NCCNCCO)ccc(NCCNCCO)c21` [mitoxantrone]: the “viability of normal cells (CCD-966SK cells)” value in the data set on CCD-966SK cells (mitoxantrone alone at about 2.5 μg/ml (FIG. 12)) was “reduced”. In addition, in the data set with HepG2 cells [2], the half-maximal inhibitory concentration (IC50) was approximately 2.5 µg/mL (≈ 5.62 µM).

Turning to `C=C(CC[C@@H](C)[C@H]1CC[C@H]2C3=C(C(=O)C[C@]12C)[C@@]1(C)CCC(=O)[C@@H](C)[C@@H]1CC3)[C@@H](C)C(=O)O` [Antcin A, 4α-methylergosta-8,24(28)-diene-3,11-dione-26-oic acid], in the data set with human cancer cells, the “selective inhibition of proliferation” value is on record as “selectively inhibit proliferation of human cancer cells rather than normal cells”.

In the case of `CCN(CC)CCNC(=O)c1c(C)[nH]c(/C=C2\C(=O)Nc3ccc(F)cc32)c1C` [sunitinib], the “killing of normal cells (CCD-966SK cells)” value in the data set with CCD-966SK cells (sunitinib alone at about 25 μg/ml (FIG. 10)) is “also killed”. The IC50 in the data set with HepG2 cells [2] was approximately 25 µg/mL (≈ 62.7 µM).

As a reminder, the IC50 is the concentration needed to halve the response being measured.

Values taken from patent US20140057880A1, “ANTCIN DERIVATIVES IN COMBINATION WITH ANTI-CANCER DRUGS IN THE TREATMENT AND/OR PREVENTION OF TUMORS” (Taiwan Antitumor Biotech Co., Ltd., priority 2012, published 2014).
